Values after ≈ are worked out from the molar mass of the structure shown. Where two headings read alike, the source gives them in different places.
Experiments:
MDA-MB-231 = experiment: Sulforhodamine B antiproliferative assay, 72 h, normal and hypoxia; assay type: cell-based, human; conditions: Homo sapiens, MDA-MB-231, 72-hour exposition
Procedure, shortened: (§1)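 Cells at 10^5 cells/mL were given four concentrations within 0.1-100 ug/mL for 72 h at 37° C., under 21% O2 (normal) or <1% O2 (hypoxia). Growth read by sulforhodamine B staining after TCA fixation (A540); MTT (A570) was used for estradiol (200 nM) runs. Mean IC50 ± SD from ≥3 independent triplicate experiments.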

MCF-7 = experiment: as above; assay type: cell-based, human; conditions: Homo sapiens, MCF7; hypoxia (<1% of oxygen), 72-hour exposition; read-out: IC50 [µg/ml] MCF-7 hypoxia
Procedure, shortened: as §1

HT-29 [1] = experiment: MTT antiproliferative assay, 72 h; assay type: cell-based; conditions: Homo sapiens, 72 hours exposition, read-out: IC50 [µg/ml] HT-29 normal
Experimental: (§2) Anticancer activity of PDI A1-inhibitors has been also tested in vitro in antiproliferative essay in normoxic and hypoxic conditions as well in estrogen-stimulated cancer cells. In the experiment, cells were seeded on 96-well plates (Sarstedt, Germany) in appropriate culture medium at a density of 10^5 cells/mL 24 h before adding the tested compounds. Cells were treated with each compound in four concentrations in the range 0.1-100 ug/mL. […] After 72 h of compound treatment at 37° C., 5 % CO2 humid atmosphere and in wo different oxygen level conditions: 21% - normal and <1% - hypoxia. In some experiments, the MDA-MB-231 and MCF-7 cells were seeded with or without 200 nM estradiol and after 24 h the tested compounds were added. A previously described sulforhodamine B antiproliferative assay was used with minor modifications (Skehan P et al., 1990). Briefly, cells were fixed with 50 µL/well of 50% (w/v) trichloroacetic acid (Avantor Performance Materials, Gliwice, Poland). After 1 h incubation, plates were washed several times with tap water and 50 µL of 0.4% (w/v) solution of sulforhodamine B (Sigma-Aldrich, Germany) in 1% (v/v) acetic acid (Avantor Performance Materials, Gliwice, Poland) was added to each well. After 30 min incubation at room temperature, unbound dye was washed out with 1% (v/v) acetic acid, whereas bound dye was solubilized with 10 mM unbuffered TRIS (Avantor Performance Materials, Gliwice, Poland) solution. The entire procedure was performed using a BioTek EL-406 washing station (BioTek Instruments, USA). After additional 30 min, absorbance was read using a Biotek Hybrid H4 reader (BioTek Instruments, USA) at 540 nm wavelength. MTT assay was used alternatively for HL-60 cell line and in the experiment in which estrogens are added (specified in the table legend). Absorbance was measured using a Biotek Hybrid H4 reader at 570 nm wavelength for MTT assay.
(§3) Compounds at each concentration were tested in triplicate in a single experiment and each experiment was repeated at least three times independently.
(§4) Results of in vitro antiproliferative effects are shown in Table 3 and Table 4 and are presented as mean IC50 ± SD calculated using the Prolab-3 system based on Cheburator 0.4 software.
(§5) Statistical analysis: Unpaired t test. *p<0.05 as compared to appropriate cells not pretreated with estradiol. MTT assay was used for antiproliferative activity assessment.

HL-60 = experiment: MTT antiproliferative assay, 72 h; assay type: cell-based; conditions: Homo sapiens, 72 hours exposition, read-out: IC50 [µg/ml] HL-60 normal
Experimental: as §2, §3, §4, §5

HT-29 [2] = experiment: Long-term colony formation assay; assay type: cell-based, human; conditions: treated at IC50 dose, colonies after 2 weeks; FIGS. 1A and 1B
Experimental: To confirm, anticancer effects, selected compounds of invention, PDIA1 inhibitors were tested in long-term colony formation assay. For long-term colony formation assay the human colorectal carcinoma cell lines Caco-2 and HT-29 were maintained as follows: HT-29 in RPMI-1640 with HEPES + OPTI-MEM (1:1) and Caco-2 in Eagle’s medium (all from IIET, Wroclaw, Poland) both culture media were supplemented with 2 mM L-glutamine, 1 mM sodium pyruvate (both from Sigma-Aldrich Chemie GmbH, Steinheim, Germany), fetal bovine serum: 5% HT-29 (GE Healthcare), 20% Caco-2 (Sigma-Aldrich Chemie GmbH, Steinheim, Germany), 100 U/ml penicillin, 100 µg/ml streptomycin (both from Polfa Tarchomin S.A., Warsaw, Poland). All cell lines were grown at 37° C. in a humidified atmosphere with 5% CO2. […] The viable cells were counted using a hemocytometer (trypan blue exclusion method) and seeded in triplicates at a density of 5 × 10^2 cells/3 ml and 2.5 × 10^2 cells/3 ml (9.5 cm^2) for Caco-2 and HT-29 respectively. […] After 2 weeks, the colonies were fixed and stained with 1% crystal violet/ethanol (Sigma-Aldrich), documented with Sony Alpha 300 camera (Sony), and counted manually using ImageJ 1.47 software (National Institutes of Health, Bethesda, MD, USA). Surviving fraction (SF) was calculated. […]

HT-29 [3] = experiment: Sulforhodamine B antiproliferative assay, 72 h; assay type: cell-based, human; conditions: Homo sapiens, HT-29; normal (21% of oxygen), 72-hour exposition
Procedure, shortened: as §1

HT-29 [4] = experiment: Cell cycle and cell death analysis; assay type: cell-based, human
Experimental: Cell cycle and cell death analysis has been performed as previously described (Milczarek M et al. , 2015). Compounds were tested 5 times independently. Obtained results were analyzed using BD FACSDiva 6.2 software.

SMILES: COC(=O)C1CN1S(=O)(=O)c1ccccc1 (stereo not drawn) [Compound C-3251, Methyl 1-(benzenesulfonyl)aziridine-2-carboxylate]
- IC50 (MDA-MB-231; hypoxia (<1% of oxygen), read-out: IC50 [µg/ml] MDA-MB-231 hypoxia): 26.5 ± 1.3 µg/mL (≈ 110 µM)
- IC50 (MDA-MB-231; normal (21% of oxygen), read-out: IC50 [µg/ml] MDA-MB-231 normal): 24 ± 6.4 µg/mL (≈ 99.5 µM)
- IC50 (MCF-7): 7.9 ± 6.5 µg/mL (≈ 32.7 µM)
- IC50 (HT-29 [1]): 37.2 ± 8.4 µg/mL (≈ 154 µM)
- IC50 (HL-60): 1.5 ± 0.1 µg/mL (≈ 6.22 µM)
- Inhibition of long-term colonies formation, HT-29 (HT-29 [2]): much potent towards HT-29 than CaCo-2 cell line
- IC50 (HT-29 [3]): 30.2 ± 4.7 µg/mL (≈ 125 µM)
- Cell cycle distribution, HT-29 (HT-29 [4]; FIG. 1C): decreased HT-29 cells in G0/G1 and increased in G2/M phase
- Percentage of death cells, HT-29 (HT-29 [4]; FIG. 1D): increased significantly the percentage of death HT-29 cells
